Tested on: human umbilical vein endothelial cells (HUVECs)
Assay: SWELL1, pAKT2 and p-eNOS western blots in HUVECs
Type: cell-based
Conditions: 96 h
Description: HUVECs were purchased from ATCC (CRL-2922^TM) and were grown in M199 growth media supplemented with 20% FBS, 0.05 g Heparin Sodium Salt (Alfa Aesar), and 15 mg ECGS (Millipore Sigma). Cells were cultured on 1% of gelatin-coated plates at 37 °C and 5% CO2. For SN-40X stimulated eNOS and AKT signaling assays, HUVECs were treated for 96 h with the respective compounds and serum-starved overnight (+DMSO or +SN-40X) for 16 h in M199 media plus 1% FBS (Atlanta Biological). After the serum starve, HUVECs were returned to normal growth media for 30 min (+DMSO or +SN-40X) prior to lysate collection. Small interfering RNA (siRNA) mediated knockdown was adapted from Koh et. al., 2008[81]. Briefly, HUVECs were transfected with either a silencer select siRNA with si-SWELL1 (Cat#4392420, sense: […] antisense: […], Invitrogen) or a non-targeting control silencer select siRNA (Cat# 4390846, Invitrogen) upon reaching 90–95% confluency. siRNA was transfected twice, 24 and 72 h after initial seeding of HUVECs. Each siRNA was combined with Opti-MEM (285.25 µl, Cat#11058-021, Invitrogen) siPORT™ amine (8.75 µl, Cat#AM4503, Invitrogen), and the silencer select siRNA (6 µl) in a final volume of 300 µl. HUVECs were transfected for 4 h at 37 °C in 1% FBS containing DMEM media. For short hairpin RNA (shRNA) mediated knockdown approach, HUVECs were transduced with either human adenovirus type 5 targeting SWELL1 (Ad5-shSWELL1) or scrambled non-targeting control (Ad5-shSCR) at a multiplicity of infection (MOI) of 50 for 24 h at 37 °C upon reaching 70% confluency. The cells were then washed with DMEM media and transduced a second time, with a fresh virus, with an MOI of 25 for 12 h at 37 °C. After the final transduction step, the cells were serum-starved as described above for HUVECs, and lysates were collected. The SN-40X compounds were present in the culture media throughout the transfection/transduction for both the si/sh RNA mediated knockdown approaches. HEK-293 (ATCC, #CRL-1573™) cells were maintained in 90% DMEM (25 mM D-Glucose and 4 mM L-Glutamine) containing 10% fetal bovine serum (FBS) and 100 IU penicillin and 100 µg/ml streptomycin.
Adipocytes were washed twice in ice-cold phosphate buffer saline and lysed in RIPA buffer (150 mM NaCl, 20 mM HEPES, 1% NP-40, 5 mM EDTA, pH 7.4) with proteinase/phosphatase inhibitors (Roche). The cell lysate was further sonicated in 10 s cycle intervals 2–3 times and centrifuged at 18,407×g for 30 min at 4 °C and repeated one more time to remove the excess fat. The supernatant was collected and further estimated for protein concentration using a DC protein assay kit (Bio-Rad). Fat and liver tissues were homogenized and suspended in RIPA buffer with inhibitors and further processed in a similar fashion as described above. HUVECs were also prepared in a similar fashion except the lysates were spun only once to remove the cells debris to obtain the clear supernatant. For islets, either human or mouse islets were washed twice with phosphate buffer saline (PBS) and lysed using RIPA buffer containing protease and phosphatase inhibitors. The lysate was further clarified by freezing in liquid nitrogen for about 10 s for three cycles. The supernatant was collected from the whole lysate centrifuged at 16,260×g for 20 min at 4 °C. […] For soleus muscle, the tissue was homogenized in a Bullet Blender homogenizer (Speed-9, Time-3 mins) in 8 volumes of ice-cold muscle homogenization buffer (50 mM Tris, 25 mM NaCl, 0.2% Nonidet P-40, 5 mM EGTA, 2.5 mM EDTA, 20 mM NaF, 20 mM Na4P2O7·10H2O, 2 mM Na3VO4, pH 7.4) supplemented with protease/phosphatase inhibitor (Roche). The homogenized lysate was centrifuged two times at 18,500×g for 20 min at 4 °C and supernatant was collected for protein estimation. Protein samples were further prepared by boiling in 2X or 4X Laemmli buffer. […]

Structure (SMILES): CCCCC1(C2CCCC2)Cc2cc(OCC(=O)O)c(Cl)c(Cl)c2C1=O (stereo not drawn) [Inactive 1, 2-((2-butyl-6,7-dichloro-2-cyclopentyl-1-oxo-2,3-dihydro-1H-inden-5-yl)oxy)acetic acid]
- effect on SWELL1, pAKT2 and p-eNOS (500 nM): no effect

Structure (SMILES): CCCCC1(C2CCCC2)Cc2cc(OCCCC(=O)O)c(Cl)c(Cl)c2C1=O (stereo not drawn) [SN-401, 4-((2-butyl-6,7-dichloro-2-cyclopentyl-1-oxo-2,3-dihydro-1H-inden-5-yl)oxy)butanoic acid]
- eNOS phosphorylation (Ser1177) (500 nM): increases
- dose dependence of p-eNOS induction (different concentrations): dose-dependent induction of p-eNOS in HUVECs that saturates beyond 100 nM

Structure (SMILES): CCCCC1(C2CCCC2)Cc2cc(OCCCCCC(=O)O)c(Cl)c(Cl)c2C1=O (stereo not drawn) [SN-406, 6-((2-butyl-6,7-dichloro-2-cyclopentyl-1-oxo-2,3-dihydro-1H-inden-5-yl)oxy)hexanoic acid]
- SWELL1 induction compared to vehicle (100 nM): 1.5 fold
- basal pAKT2 induction compared to vehicle (100 nM): 2.8 fold
- p-eNOS induction compared to vehicle (100 nM): 5.5 fold
